{"source": "paper PMC9611727", "about": "“Optimization of a Novel Mandelamide-Derived Pyrrolopyrimidine Series of PERK Inhibitors” (Pharmaceutics, 2022)", "key": {"MOLM-13 (FLT3-ITD)": {"system": "MOLM-13 (FLT3-ITD)", "assay": "Cell viability assay, MOLM-13", "format": "cell-based", "settings": "Homo sapiens"}, "GCN2": {"biological_target": "T1, GCN2 (Homo sapiens, UniProt Q9P2K8)", "T1 construct": "purchased Carna 05-153", "T1 sequence (Q9P2K8 whole entry)": "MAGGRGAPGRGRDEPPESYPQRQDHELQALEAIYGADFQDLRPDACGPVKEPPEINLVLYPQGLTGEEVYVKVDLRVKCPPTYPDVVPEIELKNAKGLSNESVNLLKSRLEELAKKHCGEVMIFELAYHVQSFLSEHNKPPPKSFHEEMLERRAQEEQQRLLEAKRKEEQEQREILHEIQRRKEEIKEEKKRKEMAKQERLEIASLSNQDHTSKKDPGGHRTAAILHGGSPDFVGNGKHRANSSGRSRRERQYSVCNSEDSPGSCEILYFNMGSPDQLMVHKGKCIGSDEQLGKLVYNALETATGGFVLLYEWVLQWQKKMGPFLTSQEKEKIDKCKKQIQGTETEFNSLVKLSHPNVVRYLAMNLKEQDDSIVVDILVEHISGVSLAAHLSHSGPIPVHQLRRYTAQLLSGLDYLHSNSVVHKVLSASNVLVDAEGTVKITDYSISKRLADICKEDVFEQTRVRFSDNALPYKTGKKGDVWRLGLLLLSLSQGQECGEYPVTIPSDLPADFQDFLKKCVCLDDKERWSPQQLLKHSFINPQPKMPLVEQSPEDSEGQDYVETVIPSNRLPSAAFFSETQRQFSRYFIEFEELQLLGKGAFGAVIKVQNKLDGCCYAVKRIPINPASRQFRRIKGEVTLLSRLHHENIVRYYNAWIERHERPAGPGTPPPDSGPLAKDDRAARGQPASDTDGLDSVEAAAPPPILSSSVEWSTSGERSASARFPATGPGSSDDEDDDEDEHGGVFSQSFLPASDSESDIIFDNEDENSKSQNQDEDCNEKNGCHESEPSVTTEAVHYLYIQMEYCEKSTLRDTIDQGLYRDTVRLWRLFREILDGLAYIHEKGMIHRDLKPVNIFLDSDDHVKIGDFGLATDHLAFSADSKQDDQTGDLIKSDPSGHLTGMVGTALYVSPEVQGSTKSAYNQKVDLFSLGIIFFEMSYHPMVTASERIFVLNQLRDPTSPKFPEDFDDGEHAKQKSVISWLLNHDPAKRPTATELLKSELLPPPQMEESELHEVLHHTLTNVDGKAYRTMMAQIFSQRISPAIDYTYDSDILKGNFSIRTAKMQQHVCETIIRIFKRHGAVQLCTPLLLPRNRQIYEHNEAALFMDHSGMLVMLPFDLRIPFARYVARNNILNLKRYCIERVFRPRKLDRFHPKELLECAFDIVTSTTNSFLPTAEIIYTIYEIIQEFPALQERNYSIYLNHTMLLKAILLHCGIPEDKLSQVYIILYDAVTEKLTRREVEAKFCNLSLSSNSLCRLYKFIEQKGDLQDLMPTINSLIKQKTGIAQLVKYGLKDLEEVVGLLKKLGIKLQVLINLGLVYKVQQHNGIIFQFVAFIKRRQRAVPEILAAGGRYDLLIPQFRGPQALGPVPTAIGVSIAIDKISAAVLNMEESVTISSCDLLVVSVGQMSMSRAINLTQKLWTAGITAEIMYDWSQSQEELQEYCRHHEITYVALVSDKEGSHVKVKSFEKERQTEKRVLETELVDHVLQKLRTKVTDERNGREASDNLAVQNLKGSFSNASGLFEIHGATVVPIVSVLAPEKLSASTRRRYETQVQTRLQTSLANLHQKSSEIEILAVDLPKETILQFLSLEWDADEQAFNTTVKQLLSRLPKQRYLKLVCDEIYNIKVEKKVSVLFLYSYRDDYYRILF", "assay": "ISR kinase cell-free biochemical assay (Carna), GCN2", "settings": "ATP 150 µM", "protocol": "In brief, 26 was dissolved in DMSO and serially diluted 3-fold to generate concentrations ranging from 10 µM to 0.2 nM in a 384-well plate using a TECAN EVO200 automated liquid handler. 10 nL stock solution was transferred into each well of a 384well assay plate by an Echo550 and an equivalent volume of DMSO was added to the control wells. To each assay well, recombinant protein was suspended in 20 µL reaction buffer (listed below) and incubated at 25 °C for 1.5 h while shaking at 1250 rpm. Following incubation, 10 µL of a FRET dilution buffer including 20 mM EDTA and 4 nM Tb-anti-peIF2a [pSer51] (Invitrogen, Cat# PV4815) was added to each well and incubated at 25 °C for 2 h while shaking at 600 rpm in the dark. Analysis was performed using an Envision Microplate Reader (PerkinElmer)."}, "phosphoPERK (T980)": {"system": "phosphoPERK (T980)", "assay": "PERK autophosphorylation (pPERK/PERK) in mouse pancreas after oral dosing", "format": "in vivo", "settings": "30 mg/kg oral, 1 h", "protocol": "(§1) For PK analysis of pyrrolopyrimidine analogs in mouse, rat, and dog plasma, the oral formulation was prepared as a solution containing 20% (w/v) Captisol in 25 mM NaH2PO4 buffer (pH 2). Compounds were administered orally by gavage at 10 mg/kg to female CD1 mice. After dosing, plasma samples were collected to characterize the PK profiles at 0.25, 0.5, 1, 2, 4, 8, 12 and 24 h post-dose. The plasma concentration of compound was determined by protein precipitation with acetonitrile and liquid chromatography with mass spectrometric detection (LC-MS/MS). Parameters were estimated using Phoenix (WinNonlin) pharmacokinetic software version 6.1.0 using a non-compartmental approach consistent with the oral route of administration. PK analysis of 26 in plasma and pancreas followed a similar analytical method as above, with minor modifications. Compound 26 was suspended in a vehicle consisting of 0.5% methylcellulose (400 cP) and 0.1% Tween80 in water and administered to BALB/c nude mice by oral gavage at 0.3, 1, 3, 10, 30 mg/kg. Plasma and pancreas were sampled from 5 mice per group following a single oral administration at 1, 4, 8, 12, 24 h post-dose.\nTotal protein was extracted from pancreas tissues sampled during PK studies described above. […]"}, "MV4-11 (FLT3-ITD)": {"system": "MV4-11 (FLT3-ITD)", "assay": "Cell viability assay, MV4-11", "format": "cell-based", "settings": "Homo sapiens", "protocol": "(§2) MV-4-11 and EoL-1 were plated at a density 20,000 cells/well in a 96 well plate. Cells were incubated with DMSO, 1 µM docetaxel, or an 8-pt, 2-fold dose response of 26 in quadruplicate. On day 3 and day 7, cells from DMSO-treated wells were counted and cells from all wells were split back so that the DMSO-treated wells matched the original seeding density. Cells were centrifuged in 96 well filter plates (Sigma) and resuspended in fresh compound-containing media.\n(§3) On day 10, cells were incubated with alamarBlue™ HS Cell Viability Reagent (Invitogen) (10 µL of alamarBlue in a well of 90 µL media) for 2 hours at 37C/5% CO2. Fluorescence was measured on the EnVision Plate reader (Perkin Elmer) at an ex/em of 560/590 nm. Raw fluorescence values were normalized to positive and negative controls (DMSO, 1 µM docetaxel) to get a % viability. Replicates were averaged and dose responses were plotted on a 4 Parameter Logistic […]\n(§4) MV-4-11 cells were plated in 6 well plates overnight in reduced serum media (IMDM + 0.5% FBS). The following day, compound or vehicle were added to the plate for a final DMSO concentration of 0.1% and incubated at 37 C for 2 hours.\n(§5) Cells were washed with 1X PBS (Gibco 10010-023), and lysed in RIPA buffer with added inhibitors. Protein concentration was determined using a BCA assay (Thermo Scientific 23225). […]"}, "p-ERK": {"system": "p-ERK", "assay": "FLT3-ITD downstream signaling, p-ERK western blot in MV4-11 cells", "format": "cell-based", "settings": "Homo sapiens, normalized to Crenolanib, read-out: pERK IC50", "protocol": "as §2, §3, §4, §5"}, "[1]": {"assay": "PK of 26 in plasma and pancreas of BALB/c nude mice", "format": "in vivo, mouse", "settings": "0.3 to 30 mg/kg single oral gavage", "protocol": "as §1"}}, "data": [{"molecule": "Cc1nc(N)c2c(-c3ccc(NC(=O)[C@H](O)c4cccc(C(F)(F)F)c4)cc3C)cn(C)c2n1", "note": "[Compound 26]", "values": [{"measurement": "IC50", "setting": "MOLM-13 (FLT3-ITD)", "value": 311, "unit": "nM"}, {"measurement": "IC50", "setting": "GCN2", "value": "> 10000", "unit": "nM"}, {"measurement": "inhibition of pPERK/PERK in pancreas", "setting": "phosphoPERK (T980)", "value": "approximately 80%"}, {"measurement": "IC50", "setting": "MV4-11 (FLT3-ITD)", "value": 226, "unit": "nM"}, {"measurement": "IC50", "setting": "p-ERK", "value": 551, "unit": "nM"}, {"measurement": "exposure in plasma and pancreas", "setting": "[1]", "value": "dose-proportionate exposure"}]}]}
